Laboratory results reported in patent US10155802B2, “Locally-active anticoagulants and anti-inflammatory agents” (priority 2011, dated 2018).
Where two headings read alike, the source gives them in different places.

Tests used:
Human α-thrombin = biological target: T1, Human α-thrombin (Homo sapiens, UniProt P00734); experiment: Inhibition of thrombin-catalyzed hydrolysis of chromogenic substrate S-2366 (inhibition constant Ki); type: biochemical; settings: for Kd: KD (dissociation constant of open species = Ki x popen); for Ki: pH 7.6
T1 construct: Human α-thrombin was purchased from Haemotologic Technologies, Inc., VT, USA; purchased Haemotologic Technologies, Inc., VT, USA

[1] = Thermal unfolding of hairpin linkers (Tm, unfolded population punfold); type: physicochemical; settings: calculated, two-state unfolding
Text: Assuming a two-state unfolding of the trpzip linkers, the unfolded populations punfold=popen (Table 3) can be calculated using reported thermal characteristics of isolated trpzip peptides (Cochran 2001). It is important (Cochran 2001) to take into consideration bulk temperature dependences of the enthalpy and entropy differences between folded and unfolded states of trpzip peptides (Privalov 1997). Disregard for the appreciable ΔCp difference between folded and unfolded species would lead to particularly large underestimation of punfold for BTI5, since the bulk temperatures used for Ki determination were far from the trpzip4 folding transition point.
The punfold value for the BTI2 inhibitor was calculated using ΔH=11.6 kcal/mol and ΔS=39 cal/mol/K obtained in earlier studies of the gb1 peptide (Munoz 1997), which gives punfold values of 0.44 and 0.69 at 21° C. and 37° C., respectively. […] (Table 3). More importantly, all the KD values are close to those of BTI1 which contains a flexible (or random-coil) (GS)8 linker, which confirms the predicted small variation in KD values for bivalent ligands connected by flexible linkers of equal contour length and similar composition (Zhou 2001a; Zhou, 2001b).

CC[C@H](C)[C@H](NC(=O)[C@H](CCC(=O)O)NC(=O)[C@H](CCC(=O)O)NC(=O)[C@H](Cc1ccccc1)NC(=O)[C@H](CC(=O)O)NC(=O)CNC(=O)[C@H](CO)NC(=O)CNC(=O)[C@H](CO)NC(=O)CNC(=O)[C@H](CO)NC(=O)CNC(=O)[C@H](CO)NC(=O)CNC(=O)[C@H](CO)NC(=O)CNC(=O)[C@H](CO)NC(=O)CNC(=O)[C@H](CO)NC(=O)CNC(=O)[C@H](CO)NC(=O)CNC(=O)[C@H]1CCCCN1C(=O)[C@H](CCCNC(=N)N)NS(=O)(=O)c1ccc(C(C)(C)C)cc1)C(=O)N1CCC[C@H]1C(=O)N[C@@H](CCC(=O)O)C(=O)N[C@@H](CCC(=O)O)C(=O)N[C@@H](Cc1ccc(O)cc1)C(=O)N[C@@H](CC(C)C)C(=O)N[C@@H](CCC(N)=O)C(=O)O [BTI1]
Kd (Human α-thrombin; T = 21° C.): 0.53 ± 0.03 nM
Kd (Human α-thrombin; T = 37° C.): 1.3 ± 0.3 nM
Ki (Human α-thrombin; Ki, T = 21° C.): 0.53 ± 0.03 nM
Ki (Human α-thrombin; T = 37° C., read-out: Ki): 1.3 ± 0.3 nM
punfold (population of unfolded/open linker) ([1]; T = 21° C.): 1
punfold (population of unfolded/open linker) ([1]; T = 37° C.): 1
